Measured values published in patent US4258180A, “C6-Modified cyclodextrin sulfate salts as complement inhibitors” (American Cyanamid Company, priority 1979, dated 1981).
Structures can show the parent of a compound that is named as a salt.

Assays:
[1] = system: complement system; settings: British Journal of Experimental Pathology, 33, 327-339 (1952); cited from earlier work
[2] = system: hereditary angio-neurotic edema; settings: literature reports; cited from earlier work
[3] = system: shunt pathway; assay: Test Code 036 (C-Shunt inhibitor), lysis of fragile human erythrocytes in autologous serum, cobra venom factor; format: biochemical; settings: serial dilution assay, twofold dilutions; higher well number indicates higher activity; N = Negative
Description: (§1) An active inhibitor protects C2 from C1 and C4; (ii) Test Code 035 (C3-C9 inhibitor)--This test determines the ability of the late components of human complement (C3-C9) to lyse EAC 142 in the presence of appropriate dilutions of the test compound. An active inhibitor protects EAC 142 from lysis by human C3-C9; (iii) Test Code 036 (C-Shunt inhibitor)--In this test human erythrocytes rendered fragile are lysed in autologous serum via the shunt pathway activated by cobra venom factor in the presence of appropriate dilutions of the test compound. Inhibition of the shunt pathway results in failure of lysis; (iv) Forssman Vasculitis Test--Here, the well known complement dependent lesion, Forssman Vasculitis, is produced in guinea pigs by intradermal injection of rabbit anti-Forssman antiserum. The lesion is measured in terms of diameter, edema and hemorrhage and the extent to which a combined index of these is inhibited by prior intraperitoneal injection of the test compound at 200 mg/kg is then reported, unless otherwise stated; (v) Forssman Shock Test--Lethal shock is produced in guinea pigs by an i.v. injection of anti-Forssman antiserum and the harmonic mean death time of treated guinea pigs is compared with that of simultaneous controls; (vi) Complement Level Reduction Test--In this test, the above dosed guinea pigs, or others, are bled for serum and the complement level is determined in undiluted serum by the capillary tube method of U.S. Pat. No. 3,876,376 and compared to undosed control guinea pigs; and (vii) Cap 50 Test--Here, appropriate amounts of the test compound are added to a pool of guinea pig serum in vitro, after which the undiluted serum capillary tube assay referred to above is run. The concentration of compound inhibiting 50% is reported.

[4] = system: late components of human complement (C3-C9); assay: Test Code 035 (C3-C9 inhibitor), lysis of EAC 142; format: biochemical; settings: serial dilution assay, twofold dilutions; higher well number indicates higher activity; N = Negative
Description: as §1

[5] = target: activated human C1 (Homo sapiens, UniProt P09871); assay: Test Code 026 (C1 inhibitor); format: biochemical; settings: serial dilution assay, twofold dilutions; higher well number indicates higher activity
Description: as §1

Molecule	anticomplementary effect [1]	treatment of hereditary angio-neurotic edema [2]	036 Activity in wells [3] [wells]	035 Activity in wells [4]	026 Activity in wells [5] [wells]
Nc1ccc2cc(S(=O)(=O)O)cc(O)c2c1N=Nc1ccc(NC(=O)Nc2ccc(N=Nc3c(N)ccc4cc(S(=O)(=O)O)cc(O)c34)c(S(=O)(=O)O)c2)cc1S(=O)(=O)O [chlorazol fast pink, 3,3'-ureylenebis-[6-(2-amino-8-hydroxy-6-sulfo-1-naphthylazo)]benzenesulfonic acid, tetrasodium salt]	anticomplementary effect	–	–	–	–
NCCCCCC(=O)O [epsilon-aminocaproic acid]	–	used with success	–	–	–
NC[C@H]1CC[C@H](C(=O)O)CC1 [tranexamic acid]	–	used with success	–	–	–
N#CSC[C@H]1O[C@@H]2O[C@H]3[C@H](OS(=O)(=O)O)[C@@H](OS(=O)(=O)O)[C@@H](O[C@H]4[C@H](OS(=O)(=O)O)[C@@H](OS(=O)(=O)O)[C@@H](O[C@H]5[C@H](OS(=O)(=O)O)[C@@H](OS(=O)(=O)O)[C@@H](O[C@H]6[C@H](OS(=O)(=O)O)[C@@H](OS(=O)(=O)O)[C@@H](O[C@H]7[C@H](OS(=O)(=O)O)[C@@H](OS(=O)(=O)O)[C@@H](O[C@H]8[C@H](OS(=O)(=O)O)[C@@H](OS(=O)(=O)O)[C@@H](O[C@H]1[C@H](OS(=O)(=O)O)[C@H]2OS(=O)(=O)O)O[C@@H]8CSC#N)O[C@@H]7CSC#N)O[C@@H]6CSC#N)O[C@@H]5CSC#N)O[C@@H]4CSC#N)O[C@@H]3CSC#N [β-Cyclo[6-deoxy-6-thiocyanato]dextrin poly(H-sulfate)poly-tr] [6,6',6",6'",6"",6'"",6"""-Heptadeoxy-6,6',6",6'",6"",6'"",6""-heptathiocyanato-β-cyclodextrin, tetradecakis(H-sulfte), tetradecasalt with trimethylamine]	–	–	1	N	4
C[C@H]1O[C@@H]2O[C@H]3[C@H](OS(=O)(=O)O)[C@@H](OS(=O)(=O)O)[C@@H](O[C@H]4[C@H](OS(=O)(=O)O)[C@@H](OS(=O)(=O)O)[C@@H](O[C@H]5[C@H](OS(=O)(=O)O)[C@@H](OS(=O)(=O)O)[C@@H](O[C@H]6[C@H](OS(=O)(=O)O)[C@@H](OS(=O)(=O)O)[C@@H](O[C@H]7[C@H](OS(=O)(=O)O)[C@@H](OS(=O)(=O)O)[C@@H](O[C@H]8[C@H](OS(=O)(=O)O)[C@@H](OS(=O)(=O)O)[C@@H](O[C@H]1[C@H](OS(=O)(=O)O)[C@H]2OS(=O)(=O)O)O[C@@H]8C)O[C@@H]7C)O[C@@H]6C)O[C@@H]5C)O[C@@H]4C)O[C@@H]3C [β-Cyclo[6-deoxy]dextrin poly(H-sulfate)poly-sodium salt] [6,6',6",6'",6"",6'"",6"""-Heptadeoxy-β-cyclodextrin, tetradecakis(H-sulfate), tetradecasodium salt]	–	–	5	4 wells	9
C[C@H]1O[C@@H]2O[C@H]3[C@H](OS(=O)(=O)O)[C@@H](OS(=O)(=O)O)[C@@H](O[C@H]4[C@H](OS(=O)(=O)O)[C@@H](OS(=O)(=O)O)[C@@H](O[C@H]5[C@H](OS(=O)(=O)O)[C@@H](OS(=O)(=O)O)[C@@H](O[C@H]6[C@H](OS(=O)(=O)O)[C@@H](OS(=O)(=O)O)[C@@H](O[C@H]7[C@H](OS(=O)(=O)O)[C@@H](OS(=O)(=O)O)[C@@H](O[C@H]8[C@H](OS(=O)(=O)O)[C@@H](OS(=O)(=O)O)[C@@H](O[C@H]1[C@H](OS(=O)(=O)O)[C@H]2OS(=O)(=O)O)O[C@@H]8C)O[C@@H]7C)O[C@@H]6C)O[C@@H]5C)O[C@@H]4C)O[C@@H]3C [β-Cyclo[6-deoxy]dextrin poly(H-sulfate)poly-trimethylamine s] [6,6',6",6'",6"",6'"",6"""-Heptadeoxy-β-cyclodextrin, tetradecakis(H-sulfate), tetradecasalt with trimethylamine]	–	–	4	2 wells	7
heparin	anticomplementary effect	–	–	–	–
